Test results as given in publication PMC9080333 (RSC Advances, 2018).
Converted amounts (≈) assume the structure as drawn.

Legend:
[1] = tested on: Mycobacterium tuberculosis H37Rv; experiment: In vitro MTB Microplate Alamar Blue Assay; assay type: cell-based
RAW 264.7 cells = settings: RAW 264.7 cell line, MTT assay, 50 μg mL^−1, 48 h incubation
[2] = Mycobacterium tuberculosis, H37RV, M. tuberculosis H37Rv, MABA, average of duplicates
[3] = against MTB, in vitro (conclusion)
[4] = Mycobacterium tuberculosis, H37RV, 168 h, M. tuberculosis H37Rv, MABA, average of duplicates
[5] = M. tuberculosis H37Rv, MABA, average of duplicates

Compound | MIC [1, 2] | Cytotoxicity in % inhibition at 50 μg mL^−1 (RAW 264.7 cells) | other results
Cc1ccc2c(c1)C=CC1(CCc3c(nnn3-c3ccccc3)C1)O2 (centres unmarked) [Compound 7a, 6′-Methyl-1-phenyl-1,4,6,7-tetrahydrospiro[benzo[d][1,2,3]triazole-5,2′-chromene]] | 4.74 µM (≈ 1.56 µg/mL) | 30.23% | MIC [1, 3]: 1.56 µg
Cc1ccc(-n2nnc3c2CCC2(C=Cc4cc(C)ccc4O2)C3)cc1 (centres unmarked) [Compound 7b, 6′-Methyl-1-(p-tolyl)-1,4,6,7-tetrahydrospiro[benzo[d][1,2,3]triazole-5,2′-chromene]] | – | – | MIC [1, 4]: 75.8 µM (≈ 26 µg/mL)
Cc1ccc2c(c1)C=CC1(CCc3c(nnn3-c3ccc(Cl)cc3)C1)O2 (centres unmarked) [Compound 7c, 1-(4-Chlorophenyl)-6′-methyl-1,4,6,7-tetrahydrospiro[benzo[d][1,2,3]triazole-5,2′-chromene]] | 34.4 µM (≈ 12.5 µg/mL) | – | –
COc1ccc(-n2nnc3c2CCC2(C=Cc4cc(C)ccc4O2)C3)cc1 (centres unmarked) [Compound 7d, 1-(4-Methoxyphenyl)-6′-methyl-1,4,6,7-tetrahydrospiro[benzo[d][1,2,3]triazole-5,2′-chromene]] | 4.34 µM (≈ 1.56 µg/mL) | 33.14% | MIC [1, 3]: 1.56 µg
Cc1ccc2c(c1)C=CC1(CCc3c(nnn3Cc3ccccc3)C1)O2 (centres unmarked) [Compound 7e, 1-Benzyl-6′-methyl-1,4,6,7-tetrahydrospiro[benzo[d][1,2,3]triazole-5,2′-chromene]] | – | – | MIC [1, 4]: 75.8 µM (≈ 26 µg/mL)
Clc1ccc2c(c1)C=CC1(CCc3c(nnn3-c3ccccc3)C1)O2 (centres unmarked) [Compound 7f, 6′-Chloro-1-phenyl-1,4,6,7-tetrahydrospiro[benzo[d][1,2,3]triazole-5,2′-chromene]] | 17.9 µM (≈ 6.26 µg/mL) | 21.41% | –
Cc1ccc(-n2nnc3c2CCC2(C=Cc4cc(Cl)ccc4O2)C3)cc1 (centres unmarked) [Compound 7g, 6′-Chloro-1-(p-tolyl)-1,4,6,7-tetrahydrospiro[benzo[d][1,2,3]triazole-5,2′-chromene]] | 68.9 µM (≈ 25.1 µg/mL) | – | –
Clc1ccc(-n2nnc3c2CCC2(C=Cc4cc(Cl)ccc4O2)C3)cc1 (centres unmarked) [Compound 7h, 6′-Chloro-1-(4-chlorophenyl)-1,4,6,7-tetrahydrospiro[benzo[d][1,2,3]triazole-5,2′-chromene]] | 65.3 µM (≈ 25.1 µg/mL) | – | –
COc1ccc(-n2nnc3c2CCC2(C=Cc4cc(Cl)ccc4O2)C3)cc1 (centres unmarked) [Compound 7i, 6′-Chloro-1-(4-methoxyphenyl)-1,4,6,7-tetrahydrospiro[benzo[d][1,2,3]triazole-5,2′-chromene]] | 4.11 µM (≈ 1.56 µg/mL) | 29.36% | MIC [1, 3]: 1.56 µg
Clc1ccc2c(c1)C=CC1(CCc3c(nnn3Cc3ccccc3)C1)O2 (centres unmarked) [Compound 7j, 1-Benzyl-6′-chloro-1,4,6,7-tetrahydrospiro[benzo[d][1,2,3]triazole-5,2′-chromene]] | 34.4 µM (≈ 12.5 µg/mL) | – | –
Cc1cc2c(cc1Cl)C=CC1(CCc3c(nnn3-c3ccccc3)C1)O2 (centres unmarked) [Compound 7k, 6′-Chloro-7′-methyl-1-phenyl-1,4,6,7-tetrahydrospiro[benzo[d][1,2,3]triazole-5,2′-chromene]] | 8.6 µM (≈ 3.13 µg/mL) | 24.90% | MIC [1, 5]: 8.60 µM (≈ 3.13 µg/mL)
Cc1ccc(-n2nnc3c2CCC2(C=Cc4cc(Cl)c(C)cc4O2)C3)cc1 (centres unmarked) [Compound 7l, 6′-Chloro-7′-methyl-1-(p-tolyl)-1,4,6,7-tetrahydrospiro[benzo[d][1,2,3]triazole-5,2′-chromene]] | – | – | MIC [1, 4]: 69 µM (≈ 26.1 µg/mL)
Cc1cc2c(cc1Cl)C=CC1(CCc3c(nnn3-c3ccc(Cl)cc3)C1)O2 (centres unmarked) [Compound 7m, 6′-Chloro-1-(4-chlorophenyl)-7′-methyl-1,4,6,7-tetrahydrospiro[benzo[d][1,2,3]triazole-5,2′-chromene]] | 7.67 µM (≈ 3.05 µg/mL) | 24.76% | MIC [1, 5]: 7.87 µM (≈ 3.13 µg/mL)
COc1ccc(-n2nnc3c2CCC2(C=Cc4cc(Cl)c(C)cc4O2)C3)cc1 (centres unmarked) [Compound 7n, 6′-Chloro-1-(4-methoxyphenyl)-7′-methyl-1,4,6,7-tetrahydrospiro[benzo[d][1,2,3]triazole-5,2′-chromene]] | 15.9 µM (≈ 6.26 µg/mL) | 22.64% | –
Cc1cc2c(cc1Cl)C=CC1(CCc3c(nnn3Cc3ccccc3)C1)O2 (centres unmarked) [Compound 7o, 1-Benzyl-6′-chloro-7′-methyl-1,4,6,7-tetrahydrospiro[benzo[d][1,2,3]triazole-5,2′-chromene]] | 66.3 µM (≈ 25.1 µg/mL) | – | –
CC[C@@H](CO)NCCN[C@@H](CC)CO [Ethambutol, reference compound] | 7.64 µM (≈ 1.56 µg/mL) | – | –
NNC(=O)c1ccncc1 [Isoniazid, reference compound] | 0.437 µM (≈ 0.0599 µg/mL) | – | –
CO[C@H]1/C=C/O[C@@]2(C)Oc3c(C)c(O)c4c(O)c(c(/C=N/N5CCN(C)CC5)c(O)c4c3C2=O)NC(=O)/C(C)=C\C=C\[C@H](C)[C@H](O)[C@@H](C)[C@@H](O)[C@@H](C)[C@H](OC(C)=O)[C@@H]1C [Rifampicin, reference compound] | 0.5 µM (≈ 0.411 µg/mL) | – | MIC [1, 5]: 0.50 µM (≈ 0.411 µg/mL)
NC(=O)c1cnccn1 [pyrazinamide, reference compound] | 50.8 µM (≈ 6.25 µg/mL) | – | –
